Measurements published in US20100168176A1, “NOVEL COMPOUNDS, PHARMACEUTICAL COMPOSITIONS CONTAINING SAME, AND METHODS OF USE FOR SAME” (FASGEN LLC, priority 2006, published 2010).
In brackets after ≈: the same amount, converted by molar mass.

Legend:
[1] = Weight loss screen in Balb/C mice; format: in vivo; settings: 60 mg/kg intraperitoneally, day 1
Description: Weight Loss Screen for Novel FAS Inhibitors
Balb/C mice (Jackson Labs) are utilized for the initial weight loss screening. Animals are housed in temperature and 12 hour day/night cycle rooms and fed mouse chow and water ad lib. Three mice are utilized for each compound tested with vehicle controls in triplicate per experiment. For the experiments, mice are housed separately for each compound tested three mice to a cage. Compounds are diluted in DMSO at 10 mg/ml and mice are injected intraperitoneally with 60 mg/kg in approximately 100 μl of DMSO or with vehicle alone. Mice are observed and weighed daily; average weights and standard errors are computed with Excel (Microsoft). The experiment continues until treated animals reach their pretreatment weights.

purified human FAS = molecular target: T1, purified human FAS (Homo sapiens, UniProt P49327); assay: FAS enzymatic activity (malonyl-CoA dependent NADPH oxidation, OD340); format: biochemical; settings: purified human FAS from ZR-75-1 cells
T1 construct: Human FAS was purified from cultured ZR-75-1 human breast cancer cells; endogenous in cells; host or cells: ZR-75-1 human breast cancer cells (ATCC); Purified by hypotonic lysis, PEG precipitations and Mono Q anion exchange
Description: Purification of FAS from ZR-75-1 Human Breast Cancer Cells.
Human FAS was purified from cultured ZR-75-1 human breast cancer cells obtained from the American Type Culture Collection. The procedure, adapted from Linn et al., 1981, and Kuhajda et al., 1994, utilizes hypotonic lysis, successive polyethyleneglycol (PEG) precipitations, and anion exchange chromatography. ZR-75-1 cells are cultured at 37° C. with 5% CO2 in RPMI culture medium with 10% fetal bovine serum, penicillin and streptomycin.
Ten T150 flasks of confluent cells are lysed with 1.5 ml lysis buffer (20 mM Tris-HCl, pH 7.5, 1 mM EDTA, 0.1 mM phenylmethanesulfonyl fluoride (PMSF), 0.1% Igepal CA-630) and dounce homogenized on ice for 20 strokes. The lysate is centrifuged in JA-20 rotor (Beckman) at 20,000 rpm for 30 minutes at 4° C. and the supernatant is brought to 42 ml with lysis buffer. A solution of 50% PEG 8000 in lysis buffer is added slowly to the supernatant to a final concentration of 7.5%. After rocking for 60 minutes at 4° C., the solution is centrifuged in JA-20 rotor (Beckman) at 15,000 rpm for 30 minutes at 4° C. Solid PEG 8000 is then added to the supernatant to a final concentration of 15%. After the rocking and centrifugation is repeated as above, the pellet is resuspended overnight at 4° C. in 10 ml of Buffer A (20 mM K2HPO4, pH 7.4). […] FAS protein concentration is determined using the Coomassie Plus Protein Assay Reagent (Pierce) according to manufacturer's specifications using BSA as a standard. […]
FAS activity is measured by monitoring the malonyl-CoA dependent oxidation of NADPH spectrophotometrically at OD340 in 96-well plates (Dils et al and Arslanian et al, 1975). […]
The assay is performed on a Molecular Devices SpectraMax Plus Spectrophotometer. […] Using the kinetic protocol, the wells are blanked on duplicate wells containing 100 μl of 100 mM K2HPO4, pH 6.5 and the plate is read at OD340 at 10 sec intervals for 5 minutes to measure any malonyl-CoA independent oxidation of NADPH. […] The plate is read again as above with the kinetic protocol to measure the malonyl-CoA dependent NADPH oxidation. […]

[2] = tested on: MCF-7 human breast cancer cells; assay: Crystal violet cell growth assay, MCF-7; format: cell-based; settings: MCF7, no cell code printed, MCF-7 per method, 72 hours, read-out: Cr. Violet (IC50)
Description: Crystal Violet Cell Growth Assay
The crystal violet assay measure cell growth but not cytotoxicity. This assay employs crystal violet staining of fixed cells in 96-well plates with subsequent solubilization and measurement of OD490 on a spectrophotometer. The OD490 corresponds to cell growth per unit time measured. Cells are treated with the compounds of interest or vehicle controls and IC50 for each compound is computed.
To measure the cytotoxicity of specific compounds against cancer cells, 5×10^4 MCF-7 human breast cancer cells, obtained from the American Type Culture Collection are plated per well in 24 well plates in DMEM medium with 10% fetal bovine serum, penicillin, and streptomycin. Following overnight culture at 37° C. and 5% CO2, the compounds to be tested, dissolved in DMSO, are added to the wells in 1 μl volume at the following concentrations: 50, 40, 30, 20, and 10 μg/ml in triplicate. […]
After 72 hours of incubation, cells are stained with 0.5 ml of Crystal Violet stain (0.5% in 25% methanol) in each well. […] Following transfer of 100 μl from each well to a 96-well plate, plates are read at OD490 on a Molecular Devices SpectraMax Plus Spectrophotometer Average OD490 values are computed using SOFTmax Pro Software (Molecular Devices) and IC50 values are determined by linear regression analysis using Prism version 3.02 (Graph Pad Software, San Diego).

T1 sequence (P49327 whole entry): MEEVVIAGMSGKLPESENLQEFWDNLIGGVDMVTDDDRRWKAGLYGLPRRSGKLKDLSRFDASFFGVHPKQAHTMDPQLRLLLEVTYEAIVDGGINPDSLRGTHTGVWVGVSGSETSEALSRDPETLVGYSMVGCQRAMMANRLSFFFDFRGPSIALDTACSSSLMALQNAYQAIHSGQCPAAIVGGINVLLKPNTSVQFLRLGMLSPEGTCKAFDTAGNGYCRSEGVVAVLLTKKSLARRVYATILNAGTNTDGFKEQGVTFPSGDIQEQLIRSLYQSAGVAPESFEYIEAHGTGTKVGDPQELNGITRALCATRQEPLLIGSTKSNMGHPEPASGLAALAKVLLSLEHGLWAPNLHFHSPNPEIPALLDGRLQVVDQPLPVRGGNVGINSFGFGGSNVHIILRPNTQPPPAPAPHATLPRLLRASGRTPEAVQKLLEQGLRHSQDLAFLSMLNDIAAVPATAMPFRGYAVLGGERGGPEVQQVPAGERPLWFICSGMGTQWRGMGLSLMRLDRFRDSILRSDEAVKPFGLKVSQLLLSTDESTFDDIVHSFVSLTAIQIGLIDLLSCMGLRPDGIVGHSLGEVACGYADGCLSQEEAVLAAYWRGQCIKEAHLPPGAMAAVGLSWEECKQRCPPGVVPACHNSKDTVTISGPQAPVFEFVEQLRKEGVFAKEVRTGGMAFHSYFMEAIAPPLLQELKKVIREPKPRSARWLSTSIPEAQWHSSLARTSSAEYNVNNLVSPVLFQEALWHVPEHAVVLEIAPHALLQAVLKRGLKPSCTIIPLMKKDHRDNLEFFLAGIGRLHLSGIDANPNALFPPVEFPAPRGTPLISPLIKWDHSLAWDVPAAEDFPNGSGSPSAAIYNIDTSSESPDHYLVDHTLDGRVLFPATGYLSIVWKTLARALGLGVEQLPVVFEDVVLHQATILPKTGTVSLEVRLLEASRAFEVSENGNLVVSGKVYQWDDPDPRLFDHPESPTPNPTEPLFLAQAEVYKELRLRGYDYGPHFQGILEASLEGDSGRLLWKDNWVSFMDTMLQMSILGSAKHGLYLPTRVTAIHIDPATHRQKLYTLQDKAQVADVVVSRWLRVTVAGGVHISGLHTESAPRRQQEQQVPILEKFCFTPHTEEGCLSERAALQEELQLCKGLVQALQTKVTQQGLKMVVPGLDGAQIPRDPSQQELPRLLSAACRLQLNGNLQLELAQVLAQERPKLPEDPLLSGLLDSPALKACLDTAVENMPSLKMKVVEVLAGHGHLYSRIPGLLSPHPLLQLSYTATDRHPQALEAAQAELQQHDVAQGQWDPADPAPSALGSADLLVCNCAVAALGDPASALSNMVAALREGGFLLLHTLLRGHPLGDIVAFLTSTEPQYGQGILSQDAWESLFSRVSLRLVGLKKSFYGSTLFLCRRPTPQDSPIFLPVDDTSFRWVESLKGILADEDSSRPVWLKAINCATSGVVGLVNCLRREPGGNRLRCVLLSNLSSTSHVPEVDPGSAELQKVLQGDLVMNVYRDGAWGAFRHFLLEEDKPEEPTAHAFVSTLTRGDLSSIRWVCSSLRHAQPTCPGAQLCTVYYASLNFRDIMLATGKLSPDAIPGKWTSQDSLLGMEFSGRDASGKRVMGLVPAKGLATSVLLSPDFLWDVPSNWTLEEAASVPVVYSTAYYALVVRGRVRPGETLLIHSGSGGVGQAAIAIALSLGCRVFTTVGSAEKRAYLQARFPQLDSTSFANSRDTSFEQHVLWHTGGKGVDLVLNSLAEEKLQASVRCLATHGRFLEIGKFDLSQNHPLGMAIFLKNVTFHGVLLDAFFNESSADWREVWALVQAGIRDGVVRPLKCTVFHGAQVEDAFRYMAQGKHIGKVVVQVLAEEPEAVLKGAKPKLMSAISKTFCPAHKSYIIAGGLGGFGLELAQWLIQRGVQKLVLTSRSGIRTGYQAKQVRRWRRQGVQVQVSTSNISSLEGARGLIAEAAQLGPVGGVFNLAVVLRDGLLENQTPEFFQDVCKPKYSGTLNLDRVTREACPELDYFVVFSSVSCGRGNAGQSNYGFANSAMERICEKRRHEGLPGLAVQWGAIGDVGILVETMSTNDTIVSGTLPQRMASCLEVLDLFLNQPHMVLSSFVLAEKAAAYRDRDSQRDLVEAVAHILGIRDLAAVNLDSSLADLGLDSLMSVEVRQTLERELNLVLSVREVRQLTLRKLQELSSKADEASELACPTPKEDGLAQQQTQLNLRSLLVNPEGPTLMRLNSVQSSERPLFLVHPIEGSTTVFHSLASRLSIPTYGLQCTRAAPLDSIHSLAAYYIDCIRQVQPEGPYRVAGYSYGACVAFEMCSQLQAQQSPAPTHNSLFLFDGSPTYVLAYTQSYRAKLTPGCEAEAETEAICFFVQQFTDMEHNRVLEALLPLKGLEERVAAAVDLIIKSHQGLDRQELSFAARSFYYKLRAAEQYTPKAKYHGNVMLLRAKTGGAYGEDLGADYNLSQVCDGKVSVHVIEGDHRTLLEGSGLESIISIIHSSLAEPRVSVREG

Structure (SMILES)	Weight Loss [1]	FAS (IC50) (purified human FAS)	IC50 [2] [µg/mL]
CCCCCCCCC1(C)SC(=O)C=C1OCC(=O)NNc1ccccc1Cl (centres unmarked) [Compound 19, (5-Methyl-5-octyl-2-oxo-thiophen-4-yloxy)-acetic-acid-N′-(2-chlorophenyl)-hydrazide]	60 mg/kg: +3.0% (day 1)	Neg	7.6 (≈ 17.9 µM)
CCCCCCCCC1(C)SC(=O)C=C1OCC(=O)NNC(=O)c1ccncc1 (centres unmarked) [Compound 20]		Neg	18.2 (≈ 43.4 µM)
